Experimental data published in article PMC3692431, “Anticonvulsant Activity of B2, an Adenosine Analog, on Chemical Convulsant-Induced Seizures” (PLoS ONE, 2013).
Read-outs that look alike come from different tables or passages of the source.

Legend:
KA-induced seizures = KA-induced seizures in mice; assay type: in vivo; conditions: KA 0.7 µg i.c.v.
Procedure: (§1) KA was dissolved in saline and the pH was adjusted to neutrality. The final concentration of KA was 0.7 µg/µl, and the convulsant dose was 1 µl (i.c.v.). […] The selective adenosine receptor antagonist DPCPX or SCH58261 was administered (i.p.) 5 min before administration of B2 or vehicle.
The left lateral ventricle (0.6 mm posterior, 1.9 mm lateral, and 2.1 mm ventral to bregma) was cannulated as described. After a 7-day recovery period, mice were injected with either B2 (1.25, 5, 20 mg/kg) or vehicle. Twenty minutes later, an intracerebroventricular injection of KA (0.7 µg/µl, 1 µl) was administered without anesthesia. The animals were then observed for a minimum of 60 min. Seizure severity was determined according to the scoring system described by Racine. At the end of the experiment, cannulae placement was verified.

4-AP-induced seizures = 4-AP-induced seizures in mice; assay type: in vivo; conditions: 4-AP 13 mg/kg; for latency of seizure onset prolonged by: vs control
Procedure: as §1
Mice were injected with B2 (1.25, 5, 20 mg/kg), carbamazepine (80 mg/kg) or vehicle 20 min before administration of strychnine (1.5 mg/kg) or 4-AP (13 mg/kg). […] The time of latency to seizure onset and mortality rate were recorded.

[1] = tested on: picrotoxin-induced seizures; assay type: in vivo, mice; conditions: picrotoxin 3.5 mg/kg; for mortality rate: control 50%; for latency to seizure onset prolonged by / number of seizures reduced by: vs control
Procedure: as §1
(§2) The latency of seizure onset, number of seizures, and mortality rate was recorded for the picrotoxin-injected mice. For the PTZ-injected mice, we recorded the latency of seizure onset, number of seizures, and presence of clonic seizures.

PTZ-induced seizures = PTZ-induced seizures in mice; assay type: in vivo; conditions: PTZ 85 mg/kg s.c.; for seizure occurrence: all control mice seized; for latency to seizure onset prolonged by / number of seizures reduced by: vs control
Procedure: as §2

A2A adenosine receptor = target: T1, A2A adenosine receptor (Rattus norvegicus, UniProt P30543); assay: Radioligand binding, [3H]MSX-2 displacement in rat striatal membranes; conditions: 0.75 nM [3H]MSX-2
T1 construct: from tissue; host or cells: striatum of male Wistar rats
T1 sequence (P30543 whole entry): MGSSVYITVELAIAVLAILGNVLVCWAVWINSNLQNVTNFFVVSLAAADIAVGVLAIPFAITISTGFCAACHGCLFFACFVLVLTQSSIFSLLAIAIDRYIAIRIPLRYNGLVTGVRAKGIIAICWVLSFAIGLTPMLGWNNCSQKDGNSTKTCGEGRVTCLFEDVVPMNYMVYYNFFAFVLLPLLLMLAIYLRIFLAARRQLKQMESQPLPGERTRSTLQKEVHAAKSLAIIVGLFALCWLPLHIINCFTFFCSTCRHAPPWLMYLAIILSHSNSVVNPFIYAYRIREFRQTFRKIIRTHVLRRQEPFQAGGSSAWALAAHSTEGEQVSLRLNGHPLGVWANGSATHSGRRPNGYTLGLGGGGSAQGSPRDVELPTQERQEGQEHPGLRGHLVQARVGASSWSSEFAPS
Procedure: Male Wistar rats were sacrificed. The cerebral cortex and striatum were then removed and homogenized in 10 volumes of ice-cold 50 mM Tris–HCl buffer (pH 7.4). The homogenates were centrifuged (48,000 ×g) at 4°C for 10 min, the supernatant decanted, and the pellet resuspended in the same volume of buffer before being centrifuged again. The final pellets were resuspended in 50 mM Tris–HCl buffer containing adenosine deaminase (1.2 U per mg of protein) to remove endogenous adenosine.
Binding affinity at adenosine A2A receptors was tested in rat striatal membranes using 0.75 nM [^3H]MSX-2 (104.8 Ci/mmol). The binding assay was carried out in Tris–HCl buffer (50 mM, pH 7.4) as previously described, [12]. Briefly, assays were performed by first incubating the mixtures on a shaking water-bath at 25°C for 30 min. Termination of the incubation was performed by rapid filtration through GF/B glass fiber filters. The radioactivity on the filter was measured using a scintillation counter. […] Inhibition curves were determined using eight different concentrations ranging from 10^−5 to 10^−8 M. The inhibition constants (Ki) were calculated using an equation from Cheng and Prusoff.

[2] = tested on: c-Fos expression in the hippocampus; assay: PTZ-induced c-Fos expression, immunohistochemistry; assay type: in vivo, mice; conditions: B2 5 mg/kg, PTZ 85 mg/kg, 2 h
Procedure: Mice were injected with either B2 (5 mg/kg) or vehicle 20 min before administration of PTZ (85 mg/kg). Two hours later, mice were either anesthetized for c-Fos analysis using immunohistochemistry or decapitated or western blotting.
Mice were anesthetized with chloral hydrate (400 mg/kg, i.p.) and perfused through the heart with saline solution followed by ice-cold 4% paraformaldehyde (PFA) in 0.1 M phosphate buffer (pH 7.4). Their brains were then removed, post-fixed in 4% PFA for 24 h at 4°C, and immersed in 30% sucrose at 4°C until they sank. Thereafter, coronal sections (30 µm) were cut using a freezing microtome (Leica RM2125).
Sections were immunostained using previously described methods. Sections were first immersed in 0.3% Triton X-100 for 10 min at room temperature, and then in 3% hydrogen peroxide for 10 min to quench endogenous peroxidase activity. Sections were then rinsed twice in 10 mM phosphate-buffered saline (pH 7.2) containing 0.3% Triton X-100. This was followed by incubation with diluted normal blocking serum (Vector Elite ABC kit) for 30 min and then 1∶800 rabbit polyclonal anti-c-Fos (primary) antibodies overnight at 4°C. Biotinylated secondary antibody solutions and VectaStain® Elite ABC reagents were applied. The peroxidase reaction was visualized using DAB with nickel ammonium sulfate for black staining. Sections were mounted, dehydrated and cover slipped. […]

COc1cc(CNc2ncnc3c2ncn3[C@@H]2O[C@H](CO)[C@@H](O)[C@H]2O)ccc1O [B2, N^6-(3-methoxyl-4-hydroxybenzyl) adenine riboside]
average seizure duration (KA-induced seizures; B2 1.25 mg/kg i.p.): 5.3 ± 0.8 min
average seizure duration (KA-induced seizures; B2 5 mg/kg i.p.): 3.7 ± 0.7 min
average seizure duration (KA-induced seizures; B2 20 mg/kg i.p.): 3.3 ± 1.0 min
latency of seizure onset prolonged by (4-AP-induced seizures; B2 1.25 mg/kg i.p.): 25%
latency of seizure onset prolonged by (4-AP-induced seizures; B2 5 mg/kg i.p.): 135%
latency of seizure onset prolonged by (4-AP-induced seizures; B2 20 mg/kg i.p.): 96%
effect on mortality rate (4-AP-induced seizures; B2 1.25, 5, 20 mg/kg i.p., control 100%): did not have a significant effect
mortality rate ([1]; B2 1.25 mg/kg i.p.): 25%
latency to seizure onset prolonged by ([1]; B2 1.25 mg/kg i.p.): 64%
number of seizures reduced by ([1]; B2 1.25 mg/kg i.p.): 18%
mortality rate ([1]; B2 5 mg/kg i.p.): 13%
latency to seizure onset prolonged by ([1]; B2 5 mg/kg i.p.): 242%
number of seizures reduced by ([1]; B2 5 mg/kg i.p.): 64%
mortality rate ([1]; B2 20 mg/kg i.p.): 25%
latency to seizure onset prolonged by ([1]; B2 20 mg/kg i.p.): 183%
number of seizures reduced by ([1]; B2 20 mg/kg i.p.): 53%
seizure occurrence (PTZ-induced seizures; B2 1.25 mg/kg i.p.): 70%
latency to seizure onset prolonged by (PTZ-induced seizures; B2 1.25 mg/kg i.p.): 43%
number of seizures reduced by (PTZ-induced seizures; B2 1.25 mg/kg i.p.): 39%
seizure occurrence (PTZ-induced seizures; B2 5 mg/kg i.p.): 30%
latency to seizure onset prolonged by (PTZ-induced seizures; B2 5 mg/kg i.p.): 89%
number of seizures reduced by (PTZ-induced seizures; B2 5 mg/kg i.p.): 70%
seizure occurrence (PTZ-induced seizures; B2 20 mg/kg i.p.): 50%
latency to seizure onset prolonged by (PTZ-induced seizures; B2 20 mg/kg i.p.): 93%
number of seizures reduced by (PTZ-induced seizures; B2 20 mg/kg i.p.): 62%
Ki (A2A adenosine receptor): 370 nM
effect on PTZ-induced increase of c-Fos expression in the CA2/3 region [2]: minor effect
effect on PTZ-induced increase of c-Fos expression in the dentate gyrus and CA1 [2]: significantly reversed
